Test results from patent US20090030037A1, “Sustained Release Formulation and Dosing Schedules of Leukotriene Synthesis Inhibitor for Human Therapy” (deCODE Genetics ehf., priority 2005, published 2009).
Where “and” joins values, the source holds several entries; their conditions need not be identical. Equal entries are not always repeated.

Experiments:
LDL-C = experiment: Study DG-031-204: LDL-C; format: in vivo, human; conditions: for LDL-C increase, mean change from baseline: after 4 weeks
Procedure: (§1) An additional single site, open label study was carried out to obtain biomarker and safety data on additional DG-031 doses (i.e., 1000 mg and 1500 mg). This study examined the safety, tolerability and dose-related effects of DG-031 on inflammatory biomarkers including: LTB4, hsCRP, and MPO. A total of 119 patients with a prior history of CAD and MI were randomized to receive either 1000 mg DG-031 (500 mg BID) or 1500 mg DG-031 (500 mg TID) daily for 4-6 weeks. Treatment with DG-031 in addition to the subject's standard care, medication, and treatment, was prescribed by the patient's cardiologist. A majority of the subjects received statin therapy before, during and after the study. Follow-up assessments were performed 2 weeks after the end of study drug administration.
(§2) The biomarkers were analyzed as described in Example 1. Statistical analysis of the data was carried out using a one-sample t-test on change from baseline with a two-sided nominal significance level of 0.050. Biomarker concentrations were log-transformed and a simple last observation carried forward (LOCF) scheme was used to impute missing observations.
LDL-C was measured weekly after administration of DG-031 500 mg BID or 500 mg TID. The mean change from baseline after 4 weeks of treatment was an increase of 9% (p=0.004; n=52) for 500 mg BID and an increase of 9% (p<0.001; n=58) for the 500 TID group. […] The LDL-C effect appeared to increase over time and tended toward baseline values at the 2-week follow up visit. A preliminary exposure-response analysis of data from studies DG-031-201, DG-031-203, and DG-031-204 supported a dose related increase in LDL-C.

MPO = experiment: Study DG-031-203: plasma MPO; format: in vivo, human; conditions: 250 mg TID, 6 hours after intake
Procedure: The study also collected information on the dose-related effect of DG-031 on capacity for LTB4 production (ex vivo), plasma MPO, and serum-CRP. […] The pattern observed supported a concentration dependent pharmacologic effect of DG-031 on capacity for LTB4 production measured ex vivo. The effects on LTB4 production amounted to a 30% (p=0.016) and 25% (p=0.094) reduction with the 375 mg BID and 250 mg TID doses, respectively.

LTB4 = experiment: Study DG-031-201: ionomycin-induced LTB4 production in whole blood ex vivo; set-up: species or system human; conditions: for LTB4 production, percent change: Study 201
Procedure: Genet. 2004). Apart from FLAP, allele A of the SNP SG12S25 in the LTA4 hydrolase gene, another gene in the LT pathway, is also associated with MI, as described in PCT application no. PCT/US03/32556 and PCT/US04/30582 incorporated by reference.
Patients who met the study eligibility criteria were enrolled and randomized into 3 different dose-level groups: (1) 64 patients on 250 mg/day therapy with DG-031 (250 mg q.d.), vs placebo; (2) 64 patients on 500 mg/day therapy with DG-031 (250 mg b.i.d.) vs placebo; and (3) 63 patients on 750 mg/day therapy with DG-031 (250 mg t.i.d.) vs placebo. […] All patients received 3 tablets per day. Treatment periods, 4 weeks in duration each, were separated by a 2-week washout period. The placebo tablets were identical in shape, color, form and taste to the active tablets except that they contained no active drug ingredients. Treatment with DG-031 or placebo was in addition to the subject's standard care, including all medications and treatment plan as prescribed by the subject's cardiologist prior to enrolment. A total of 191 subjects were enrolled, with 172 completing all 8 visits or 8 patients short of the target of 180 patients.
The primary objective was to determine whether the FLAP inhibitor has a statistically significant effect, compared to placebo, on one or more biomarkers of MI risk, including: (1) ionomycin-induced LTB4 and MPO release by neutrophils ex vivo; (2) MPO, CRP, N-tyrosine, Lp-PLA2 or amyloid A in serum, or (3) LTE4 in urine. The secondary objective was to determine whether the effect of DG-031 was dose-dependent. The tertiary objective was to assess other biomarkers (See Results). Evaluation of safety and tolerability of the drug was also a primary endpoint.
All data were analyzed according to a pre-established statistical analysis plan (SAP) and by intention-to-treat (ITT). Each arm of the study, as well as pooled sets (combining dose levels), was considered for the primary analysis. Each such set is an AB/BA cross-over design and in the primary analysis of efficacy, the levels of biomarkers of MI risk at the end of the treatment periods (visits 4 and 7) were used as primary response variables. The difference between DG-031 and placebo treatment was the primary outcome, assessed separately for each of the biomarkers. Treatment effect was tested using a two-sample t-test on the period differences for suitably transformed response variables, under an assumption of normality of the transformed data. We report treatment effect as one half of the observed mean differences in the two-sample t-test, with a 95% CI. No pre-tests for carry-over effect were performed as a part of the primary analysis. Tests for carry-over were done and are reported separately from results of primary analysis. All hypotheses were tested at a two-sided nominal significance level of 0.05 and p-values based on t-tests are reported. In addition, for the primary efficacy endpoints where the effects of the two highest doses on 10 primary variables were studied, a randomization test was performed which corrects for multiple testing and ensures that the key results are not affected by distributional concerns. In particular, 1 million permutations of the patients into the different study tracks were performed, generating a reference distribution for the maximum of the 10 t-statistics of the biomarkers under the null hypothesis of no drug effect. […]

CD40L = experiment: Study DG-031-204: CD40L; format: in vivo, human; conditions: after 4 weeks
Procedure: as §1, §2
CD40L was measured at 2-week intervals. […] After 4 weeks, there was a 22% (p<0.001; n=55) reduction in CD40L in the 500 mg BID group and a 21% (p<0.001; n=57) reduction in the 500 mg TID group. CD40L levels remained suppressed at the 2 week follow up visit.

O=C(O)[C@@H](c1ccc(OCc2ccc3ccccc3n2)cc1)C1CCCC1 [DG-031, (R)-(+)-alpha-cyclopentyl-4-(2-quinolinylmethoxy)-Benzeneacetic acid]
LDL-C increase, mean change from baseline (LDL-C; 500 mg BID): 9% | LDL-C increase, mean change from baseline (LDL-C; 500 mg TID): 9% | LDL-C percent change from baseline after 4 weeks of DG-031 administration, Mean (LDL-C; dose 250): 2.3% | LDL-C percent change from baseline after 4 weeks of DG-031 administration, Mean (LDL-C; dose 500): 5.0% | LDL-C percent change from baseline after 4 weeks of DG-031 administration, Mean (LDL-C; dose 750): 7.7% | LDL-C percent change from baseline after 4 weeks of DG-031 administration, Mean (LDL-C; dose 1000): 10.3% | LDL-C percent change from baseline after 4 weeks of DG-031 administration, Mean (LDL-C; dose 1250): 13.0% | LDL-C percent change from baseline after 4 weeks of DG-031 administration, Mean (LDL-C; dose 1500): 15.7% | Reduction of plasma MPO levels (MPO): 37% | LTB4 production, percent change (LTB4; 250 mg BID): −18% | LTB4 production, percent change (LTB4; 250 mg QD): −13% | LTB4 production, percent change (LTB4; 250 mg TID): −34% (St. 201) and −34% (−201) | Reduction of capacity for LTB4 production (LTB4; 250 mg TID, at steady state Cmin): 30% | Carry-over effect, LTB4 in whole blood, corr. for wbc (LTB4; difference visit 2 to 5, 500 and 750 mg/day vs placebo): −0.10 | Reduction in CD40L (CD40L; 500 mg BID): 22% | Reduction in CD40L (CD40L; 500 mg TID): 21%
